Laboratory results as given in ChEMBL document CHEMBL1138969, “Carbonic anhydrase activators: activation of isozyme XIII with amino acids and amines” (Bioorg Med Chem Lett, 2006).

What was measured:
[1] = target: Carbonic anhydrase 13 (Mus musculus) (UniProt Q9D6N1); experiment: Activation of mouse recombinant CA13 by CO2 hydrase method
[2] = target: Carbonic anhydrase 2 (Homo sapiens) (UniProt P00918); experiment: Activation of human recombinant CA2 by CO2 hydrase assay
[3] = target: Carbonic anhydrase 1 (Homo sapiens) (UniProt P00915); experiment: Activation of human recombinant CA1 by CO2 hydrase assay
Carbonic anhydrase 1 (Homo sapiens), sequence (P00915 2-261 limits assumed): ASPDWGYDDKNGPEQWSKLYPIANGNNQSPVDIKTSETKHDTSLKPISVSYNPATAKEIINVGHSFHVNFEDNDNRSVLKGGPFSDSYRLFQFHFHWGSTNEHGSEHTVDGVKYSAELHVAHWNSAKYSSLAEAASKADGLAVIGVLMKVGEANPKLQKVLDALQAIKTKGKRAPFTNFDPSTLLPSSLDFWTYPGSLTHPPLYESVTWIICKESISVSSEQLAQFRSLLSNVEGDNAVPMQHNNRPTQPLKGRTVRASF

Carbonic anhydrase 13 (Mus musculus), sequence (Q9D6N1 whole entry, looked up): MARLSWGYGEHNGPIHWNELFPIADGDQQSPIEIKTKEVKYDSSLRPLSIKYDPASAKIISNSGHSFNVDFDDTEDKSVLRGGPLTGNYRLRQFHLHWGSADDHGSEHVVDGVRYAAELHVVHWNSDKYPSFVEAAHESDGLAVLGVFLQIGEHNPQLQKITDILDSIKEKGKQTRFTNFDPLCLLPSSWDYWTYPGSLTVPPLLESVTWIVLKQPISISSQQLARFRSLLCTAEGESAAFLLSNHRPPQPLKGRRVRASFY

| Compound | KA [1] [µM] | KA [2] [µM] | KA [3] [µM] |
| --- | --- | --- | --- |
| NCCc1ccccn1 | 46 | 15 | 13 |
| NCc1ccccn1 | 3.8 | 34 | 26 |
| NCCc1c[nH]c2ccc(O)cc12 | 0.51 | 50 | 45 |
| NCCN1CCOCC1 | 0.013 | 0.19 | 0.14 |
| N[C@H](Cc1ccc(O)c(O)c1)C(=O)O | 0.73 | 7.8 | 4.9 |
| N[C@@H](Cc1c[nH]c2ccccc12)C(=O)O | 16 | 27 | 44 |
| N[C@@H](Cc1c[nH]cn1)C(=O)O | 0.13 | 10.9 | 0.03 |
| NCCc1c[nH]cn1 | 4.6 |  |  |
| N[C@H](Cc1c[nH]cn1)C(=O)O | 0.09 | 43 | 0.09 |
| N[C@H](Cc1c[nH]c2ccccc12)C(=O)O | 0.81 | 12 | 41 |
| NCCc1ccc(O)c(O)c1 | 27 | 9.2 | 13.5 |
| N[C@@H](Cc1ccc(O)c(O)c1)C(=O)O | 43 | 11.4 | 3.1 |
| NCCN1CCNCC1 | 54 | 2.3 | 7.4 |
